Test results from the supplement of paper PMC11962398.

Legend:
[1] = compound: T1, C[C@H]1CNCCN1c1nccc(-c2noc3c2CCC[C@@]32CCCc3sc(N)c(C#N)c32)n1 [BI-2493]; test: 1 - AUC of viability dose-response curve (sensitivity) (fraction); higher = more sensitive; settings: 5 days
Description: (§1)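 PRISM pooled barcoded cancer cell line viability screen (Broad Institute) with BI-2493 at 8 doses in threefold dilutions from 0.00457 to 10 µmol/L, 5-day treatment; curves fitted per cell line. IC50 is undefined (placeholder) for resistant lines. AUC is capped at 1, and sensitivity is reported as 1 − AUC.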

[2] = compound: T1, BI-2493; settings: 5 days
Description: as §1

Test System | 1 - AUC of viability dose-response curve [1] | IC50 of cell viability [2] [µM]
NCIH441_LUNG | 0.168 | 4.14
NCIH446_LUNG | 0.216 | 4.06
NCIH508_LARGE_INTESTINE | 0.088 | > 10
NCIH520_LUNG | 0.0795 | > 10
NCIH522_LUNG | 0.0303 | 9.9
NCIH524_LUNG | 0.0829 | 5.44
NCIH596_LUNG | 0.00278 | > 10
NCIH647_LUNG | 0.171 | 5.65
NCIH650_LUNG | 0.0133 | 9.27
NCIH661_LUNG | 0.155 | 9.34
NCIH727_LUNG | 0.129 | 6.54
NCIH747_LARGE_INTESTINE | 0.384 | 0.323
NCIH838_LUNG | 0.0686 | 7.55
NCIH841_LUNG | 0.162 | 6.98
NCIH1048_LUNG | 0.0696 | 6.78
NCIH1092_LUNG | 0.131 | 3.99
NCIH1299_LUNG | 0.0368 | 8.5
NCIH1339_LUNG | 0.0455 | 6.82
NCIH1341_LUNG | 0.146 | > 10
NCIH1355_LUNG | 0.219 | 2.46
NCIH1435_LUNG | 0.0748 | 4.95
NCIH1437_LUNG | 0.153 | 4.73
NCIH1563_LUNG | 0.00763 | 9.88
NCIH1568_LUNG | 0.0444 | 7.78
NCIH1573_LUNG | 0.0775 | 7.27
NCIH1581_LUNG | 0.0823 | 8.08

Test System | 1 - AUC of viability dose-response curve [1] | IC50 of cell viability [2] [µM]
NCIH1623_LUNG | 0.0102 | 9.93
NCIH1648_LUNG | 0.26 | 1.57
NCIH1650_LUNG | 0.042 | 8.06
NCIH1694_LUNG | 0.00415 | > 10
NCIH1703_LUNG | 0.0509 | > 10
NCIH1792_LUNG | 0.342 | 1.04
NCIH1793_LUNG | 0.16 | 8.29
NCIH1838_LUNG | 0.0993 | > 10
NCIH1876_LUNG | 0.0823 | 3.89
NCIH1915_LUNG | 0.0137 | 9.46
NCIH1944_LUNG | 0.22 | 8.69
NCIH1975_LUNG | 0.0712 | 6.8
NCIH2004RT_SOFT_TISSUE | 0.0737 | > 10
NCIH2009_LUNG | 0.149 | 5.8
NCIH2023_LUNG | 0.208 | 2.57
NCIH2030_LUNG | 0.206 | 3.34
NCIH2077_LUNG | 0.182 | 8.95
NCIH2087_LUNG | 0.104 | 3.99
NCIH2110_LUNG | 0.0708 | 6.61
NCIH2122_LUNG | 0.138 | 3.6
NCIH2126_LUNG | 0.142 | 9.82
NCIH2170_LUNG | 0.0861 | > 10
NCIH2171_LUNG | 0.0377 | 9.88
NCIH2172_LUNG | 0.0555 | 8.7
NCIH2228_LUNG | 0.0876 | 7.89
NCIH2347_LUNG | 0.138 | 4.63

Test System | 1 - AUC of viability dose-response curve [1] | IC50 of cell viability [2] [µM]
NCIH2444_LUNG | 0.102 | 6.69
NCIH2452_PLEURA | 0.00394 | > 10
NCIN87_STOMACH | 0.00691 | 9.6
NCO2_HAEMATOPOIETIC_AND_LYMPHOID_TISSUE | 0.117 | 4.33
NIHOVCAR3_OVARY | 0.103 | 8.37
NOMO1_HAEMATOPOIETIC_AND_LYMPHOID_TISSUE | 0.38 | 0.331
NOZ_LIVER | 0.0154 | 9.22
NP2_CENTRAL_NERVOUS_SYSTEM | 0.085 | 9.05
NP3_CENTRAL_NERVOUS_SYSTEM | 0.0412 | 8.21
NP5_CENTRAL_NERVOUS_SYSTEM | 0.108 | 3.54
NUDHL1_HAEMATOPOIETIC_AND_LYMPHOID_TISSUE | 0.441 | 0.306
NUGC3_STOMACH | 0.236 | 2.68
NZOV9_OVARY | 0.155 | 8.42
OACM51_OESOPHAGUS | 0.0865 | 6.83
OAW42_OVARY | 0.104 | 5.86
OC314_OVARY | 0.113 | 5.96
OC316_OVARY | 0.113 | 5.73
OCIAML2_HAEMATOPOIETIC_AND_LYMPHOID_TISSUE | 0.209 | 3
OCIAML3_HAEMATOPOIETIC_AND_LYMPHOID_TISSUE | 0.23 | 2.15
OCIC4P_OVARY | 0.115 | 6.47
OCIC5X_OVARY | 0.0098 | 9.57
OCILY3_HAEMATOPOIETIC_AND_LYMPHOID_TISSUE | 0.0575 | 7.48
OCILY19_HAEMATOPOIETIC_AND_LYMPHOID_TISSUE | 0.19 | 3.56
OCILY132_HAEMATOPOIETIC_AND_LYMPHOID_TISSUE | 0.0816 | 7.21
